“Also recorded” adds a separate entry of the source. Where two headings read alike, the source gives them in different places.
System: hippocampal slices
Test: Hippocampal slice cultures and induction of LTP (immunohistochemistry of LTP markers); for pCREB: key: ±: no change in the activation status; ++++: a qualitative maximal activation; ++: a half-maximum activation; −: a reduction of activation; for pMAPK: key: ±: no change in the activation status; ++++: a qualitative maximal activation; ++: a half-maximum activation; −: a reduction of activation
Format: cell-based, Wistar rats
Settings: for AMPA rec. (AMPA receptors on the cell surface): 15 min treatment; for pCREB / pMAPK: relative activation vs vehicle treated sister cultures, 15 min treatment after 48 h in culture
Experimental: Seven-day-old Wistar rats were decapitated using a guillotine. In less than 1 minute the skull was opened, the cerebral hemispheres were separated and transferred and both hippocampi were dissected and transferred into ice cold buffer containing 137 mM NaCl, 5 mM KCl, 0.85 mM Na2HPO4, 1.5 mM CaCl2, 0.66 mM KH2PO4, 0.28 mM MgSO4, 1 mM MgCl2, 2.7 mM NaHCO3, 1 mM Kynurenic acid and 0.6% D-glucose. Transversal hippocampal slices (typically 400 μm) were prepared using a vibrating blade microtome (VT1200S; Leica Microsystems (Schweiz) AG, Heerbrugg, Switzerland) in the same buffer. Hippocampal slices were individually placed on a membrane insert (Millicell Culture Plate Inserts, 0.4 μm) and cultivated at 35° C., 5% CO2, 95% humidity in a medium containing a 1:1 mixture of BME and MEM (both from Invitrogen) containing 25% heat-inactivated horse serum, 1× GlutaMAX, 1× Penicillin/Streptomycin, 0.6% glucose and 1 mM Kynurenic acid (Stoppini et al. 1991 J Neurosci Methods 37(2):173-82). […] Sarcosine (100 μM) and ALX5407 (20 nM) were used routinely as positive controls. […] After the treatments, sections were washed and fixed for immunohistochemistry. Markers of enhanced synaptic activity, normally associated with LTP, representing an in vitro (or ex vivo) model of learning and memory, were quantified (see Table 1, below). Table 1. Relative activation of synaptic markers after treatment with both extracts and some of their constituent compounds in comparison to sister cultures treated with buffer. The activation of any of these markers (or a combination thereof) is observed in classical LTP experiments. Data are compared to vehicle treated sections, which is set as 100%.

[1] = compared to vehicle treated sections set as 100%
[2] = class symbol, vs vehicle treated sister cultures

Compound | LTP-inducing activity (biochemical markers typical for LTP) | AMPA rec. (AMPA receptors on the cell surface) [1] | pCREB | AMPA rec. (AMPA receptors on the cell surface) [2] | LTP-inducing activity (biochemical markers typical for LTP) (listed as p-cemene) | pMAPK
Cc1ccc(C(C)C)c(O)c1 [Thymol] | induced biochemical markers typical for LTP; also recorded: induce activation of biochemical pathway leading to LTP induction | 250-767% | ++++ |  |  | 
Cc1ccc(C(C)C)cc1 [P-Cymene] | induce activation of biochemical pathway leading to LTP induction |  | ++ | ± | induced biochemical markers typical for LTP | ++++
NCC(=O)O [Glycine] |  |  | ++ |  |  | ++
C=CC(C)(O)CCC=C(C)C (centres unmarked) [Linalool] | lack the LTP-inducing activity |  | ± | ± |  | ±
Caryophyllene | lack the LTP-inducing activity |  | ± |  |  | ±
Cc1ccc(C(C)C)cc1O [Carvacrol] | lack the LTP-inducing activity | 0-176% |  |  |  | −

— patent publication US20110104716A1, “NOVEL METHOD FOR SCREENING BRAIN-ACTIVE COMPOUNDS” (priority 2007, published 2011)
